Laboratory results from ChEMBL document CHEMBL1671823, “Novel Cyclic Phosphinic Acids as GABAC ρ Receptor Antagonists: Design, Synthesis, and Pharmacology” (ACS Med Chem Lett, 2011).
Calls of active or inactive are those of the source. No cut-off for these calls is given here.

Tests used:
[1] = target: T1, Gamma-aminobutyric acid receptor subunit rho-1 (Homo sapiens, UniProt P24046); experiment: Antagonist activity at human recombinant GABAc rho-1 receptor expressed in Xenopus laevis oocytes assessed as inhibition of GABA-induced current by two electrode voltage clamp technique; type: functional, cell-based, Oocyte; conditions: for Kb: Oocyte
[2] = target: T2, GABA-B receptor (Homo sapiens) (UniProt Q9UBS5+O75899); experiment: […] activity at human recombinant GABAb 1b/2 receptor expressed in Xenopus laevis oocytes co-expressing GIRK1/4 assessed as inhibition of GABA-induced current by two electrode voltage clamp technique; type: functional, cell-based; conditions: Oocyte
[3] = target: Gamma-aminobutyric acid receptor subunit rho-2 (Homo sapiens, UniProt P28476); experiment: Antagonist activity at human recombinant GABAc rho-2 receptor expressed in Xenopus laevis oocytes assessed as inhibition of GABA-induced current by two electrode voltage clamp technique; type: functional, cell-based, Oocyte
[4] = target: T3, GABA-A receptor; alpha-1/beta-2/gamma-2 (Homo sapiens) (UniProt P14867+P47870+P18507); experiment: Antagonist activity at human recombinant GABAA alpha1beta2gamma2L receptor expressed in Xenopus laevis oocytes assessed as inhibition of GABA-induced current at 600 uM by two electrode voltage clamp technique; type: functional, cell-based; conditions: Oocyte
[5] = target: T2, GABA-B receptor (Homo sapiens); experiment: […] activity at human recombinant GABAb 1b/2 receptor expressed in Xenopus laevis oocytes co-expressing GIRK1/4 assessed as inhibition of GABA-induced current at 10 uM by two electrode voltage clamp technique; type: functional, cell-based; conditions: Oocyte
[6] = target: T2, GABA-B receptor (Homo sapiens); experiment: […] activity at human recombinant GABAb 1b/2 receptor expressed in Xenopus laevis oocytes co-expressing GIRK1/4 assessed as inhibition of GABA-induced current at 600 uM by two electrode voltage clamp technique; type: functional, cell-based; conditions: Oocyte
GABA-B receptor = GABA-B receptor (Homo sapiens, UniProt O75899+Q9UBS5); experiment: Antagonist activity at human recombinant GABAb 1b/2 receptor expressed in Xenopus laevis oocytes co-expressing GIRK1/4 assessed as inhibition of GABA-induced current by two electrode voltage clamp technique; type: functional, cell-based, Oocyte
[7] = target: T1, Gamma-aminobutyric acid receptor subunit rho-1; experiment: Antagonist activity at human recombinant GABAc rho-1 receptor expressed in Xenopus laevis oocytes assessed as inhibition of GABA-induced current at 600 uM by two electrode voltage clamp technique; type: functional, cell-based; conditions: Oocyte
[8] = target: T3, GABA-A receptor; alpha-1/beta-2/gamma-2 (Homo sapiens); experiment: Antagonist activity at human recombinant GABAA alpha1beta2gamma2L receptor expressed in Xenopus laevis oocytes assessed as inhibition of GABA-induced current at 100 uM by two electrode voltage clamp technique; type: functional, cell-based; conditions: Oocyte
[9] = target: T1, Gamma-aminobutyric acid receptor subunit rho-1; experiment: Antagonist activity at human recombinant GABAc rho-1 receptor expressed in Xenopus laevis oocytes assessed as inhibition of GABA-induced current at 100 uM by two electrode voltage clamp technique; type: functional, cell-based; conditions: Oocyte
[10] = target: T3, GABA-A receptor; alpha-1/beta-2/gamma-2 (Homo sapiens); experiment: Antagonist activity at human recombinant GABAA alpha1beta2gamma2L receptor expressed in Xenopus laevis oocytes assessed as inhibition of GABA-induced current at 300 uM by two electrode voltage clamp technique; type: functional, cell-based; conditions: Oocyte
[11] = target: T2, GABA-B receptor (Homo sapiens); experiment: Antagonist activity at human recombinant GABAb 1b/2 receptor expressed in Xenopus laevis oocytes co-expressing GIRK1/4 assessed as inhibition of GABA-induced current at 300 uM by two electrode voltage clamp technique; type: functional, cell-based; conditions: Oocyte

T1 sequence (P24046 whole entry): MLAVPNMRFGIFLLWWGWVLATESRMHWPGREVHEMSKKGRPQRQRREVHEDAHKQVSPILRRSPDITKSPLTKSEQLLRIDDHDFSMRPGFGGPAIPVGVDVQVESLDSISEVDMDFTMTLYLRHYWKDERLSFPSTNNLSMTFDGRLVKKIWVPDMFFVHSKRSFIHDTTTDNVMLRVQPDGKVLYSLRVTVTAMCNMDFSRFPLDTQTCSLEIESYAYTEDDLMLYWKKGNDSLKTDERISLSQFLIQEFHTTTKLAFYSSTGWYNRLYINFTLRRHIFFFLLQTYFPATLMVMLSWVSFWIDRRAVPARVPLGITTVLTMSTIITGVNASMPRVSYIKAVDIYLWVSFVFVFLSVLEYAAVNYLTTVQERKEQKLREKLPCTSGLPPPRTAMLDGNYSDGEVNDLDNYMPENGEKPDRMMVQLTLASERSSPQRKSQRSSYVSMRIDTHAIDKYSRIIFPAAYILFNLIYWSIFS
Sequence of Gamma-aminobutyric acid receptor subunit rho-2 (P28476 whole entry): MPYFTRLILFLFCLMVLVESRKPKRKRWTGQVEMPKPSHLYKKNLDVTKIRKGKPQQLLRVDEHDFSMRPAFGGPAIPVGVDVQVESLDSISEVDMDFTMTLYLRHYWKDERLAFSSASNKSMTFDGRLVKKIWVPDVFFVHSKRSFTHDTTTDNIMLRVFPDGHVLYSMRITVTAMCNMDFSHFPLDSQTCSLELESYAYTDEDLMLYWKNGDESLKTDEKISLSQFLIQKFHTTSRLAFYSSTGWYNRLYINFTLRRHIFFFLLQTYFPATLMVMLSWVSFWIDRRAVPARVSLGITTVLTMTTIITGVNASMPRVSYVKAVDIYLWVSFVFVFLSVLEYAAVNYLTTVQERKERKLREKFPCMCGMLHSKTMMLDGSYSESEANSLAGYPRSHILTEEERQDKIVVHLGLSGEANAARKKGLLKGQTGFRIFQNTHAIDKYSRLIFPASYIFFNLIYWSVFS
Sequence of GABA-B receptor (Q9UBS5 whole entry): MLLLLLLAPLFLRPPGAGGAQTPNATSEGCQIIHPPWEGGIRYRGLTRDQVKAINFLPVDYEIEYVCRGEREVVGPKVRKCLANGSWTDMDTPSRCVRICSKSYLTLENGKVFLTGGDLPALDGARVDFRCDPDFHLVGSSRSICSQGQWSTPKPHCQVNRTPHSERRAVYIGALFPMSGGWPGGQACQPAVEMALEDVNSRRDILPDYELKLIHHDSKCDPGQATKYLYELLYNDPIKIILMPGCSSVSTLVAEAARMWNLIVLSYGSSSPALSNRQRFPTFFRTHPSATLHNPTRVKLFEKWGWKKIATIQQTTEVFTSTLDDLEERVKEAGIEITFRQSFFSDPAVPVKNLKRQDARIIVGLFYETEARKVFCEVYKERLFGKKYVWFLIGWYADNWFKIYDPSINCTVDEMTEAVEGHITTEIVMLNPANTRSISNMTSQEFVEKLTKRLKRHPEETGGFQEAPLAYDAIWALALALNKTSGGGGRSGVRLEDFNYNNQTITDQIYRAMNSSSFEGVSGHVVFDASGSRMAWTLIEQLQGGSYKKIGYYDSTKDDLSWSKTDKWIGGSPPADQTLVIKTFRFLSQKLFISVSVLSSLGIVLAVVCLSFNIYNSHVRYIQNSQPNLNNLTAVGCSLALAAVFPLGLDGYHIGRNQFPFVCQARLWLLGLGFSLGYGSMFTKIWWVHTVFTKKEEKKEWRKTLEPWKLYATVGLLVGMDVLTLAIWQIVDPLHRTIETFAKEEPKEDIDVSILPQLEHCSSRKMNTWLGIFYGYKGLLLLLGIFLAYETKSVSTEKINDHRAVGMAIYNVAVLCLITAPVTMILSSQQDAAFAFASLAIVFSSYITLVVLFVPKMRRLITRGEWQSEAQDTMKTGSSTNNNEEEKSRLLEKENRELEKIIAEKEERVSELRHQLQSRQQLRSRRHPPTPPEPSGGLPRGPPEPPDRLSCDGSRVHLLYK
Sequence of GABA-B receptor (O75899 whole entry): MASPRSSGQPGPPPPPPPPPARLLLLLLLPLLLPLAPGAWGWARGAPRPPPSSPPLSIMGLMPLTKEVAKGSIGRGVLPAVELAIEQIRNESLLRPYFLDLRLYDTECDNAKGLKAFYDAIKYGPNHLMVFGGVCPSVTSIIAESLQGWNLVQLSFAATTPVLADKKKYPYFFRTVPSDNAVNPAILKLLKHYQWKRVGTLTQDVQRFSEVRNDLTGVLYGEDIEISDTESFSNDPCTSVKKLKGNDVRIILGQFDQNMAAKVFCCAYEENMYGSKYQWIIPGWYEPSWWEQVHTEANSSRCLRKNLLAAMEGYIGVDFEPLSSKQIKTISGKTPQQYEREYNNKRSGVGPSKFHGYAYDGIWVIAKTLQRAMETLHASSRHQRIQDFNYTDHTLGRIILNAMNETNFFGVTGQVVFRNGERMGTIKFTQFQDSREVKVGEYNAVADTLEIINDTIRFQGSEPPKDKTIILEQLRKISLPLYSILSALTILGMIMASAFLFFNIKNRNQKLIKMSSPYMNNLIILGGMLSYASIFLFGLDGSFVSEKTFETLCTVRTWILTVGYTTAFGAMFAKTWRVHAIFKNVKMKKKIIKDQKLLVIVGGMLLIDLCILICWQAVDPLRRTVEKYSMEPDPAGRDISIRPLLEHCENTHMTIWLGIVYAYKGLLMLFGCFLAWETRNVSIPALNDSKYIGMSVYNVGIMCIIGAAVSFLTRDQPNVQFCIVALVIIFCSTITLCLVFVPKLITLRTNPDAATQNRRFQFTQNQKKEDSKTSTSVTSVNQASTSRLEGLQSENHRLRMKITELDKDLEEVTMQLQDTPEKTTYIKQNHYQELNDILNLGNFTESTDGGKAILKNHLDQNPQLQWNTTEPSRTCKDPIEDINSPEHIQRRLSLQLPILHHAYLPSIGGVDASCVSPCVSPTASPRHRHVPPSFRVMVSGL

Q: For NCC1CCP(=O)(O)C1 (stereo not drawn), which IC50 [1] is on record?
A: Its IC50 is 19.9 µM.

Q: And the inhibition [2]?
A: The inhibition was “Dose-dependent effect”.

Q: And the IC50 [3]?
A: The IC50 was 57.1 µM.

Q: What about the inhibition [4] of the same compound?
A: The inhibition was “inactive”.

Q: And the inhibition [5]?
A: The inhibition was “inactive”.

Q: What about the inhibition [6] of the same compound?
A: The inhibition was 45.2%.

Q: With CP(=O)(O)C1=CCNCC1 as the compound, how does the IC50 [1] read?
A: The IC50 was 2.22 µM.

Q: And the IC50 [3]?
A: Its IC50 is 22.1 µM.

Q: And the Kb ([3]; Oocyte)?
A: Its Kb is 14.9 µM.

Q: And the EC50 (GABA-B receptor)?
A: The EC50 was 500 µM.

Q: With NC1CCP(=O)(O)C1 (stereo not drawn) as the compound, how does the inhibition [7] read?
A: The inhibition was “inactive”.

Q: And the inhibition [4]?
A: The inhibition was “inactive”.

Q: With N=C(N)NC1CCP(=O)(O)C1 (stereo not drawn) as the compound, how does the IC50 [1] read?
A: Its IC50 is 29.7 µM.

Q: And the Kb [1]?
A: Its Kb is 10 µM.

Q: What about the IC50 [3] of the same compound?
A: The IC50 was 51.3 µM.

Q: And the inhibition [4]?
A: Its inhibition is 29.2%.

Q: Which results are given for O=C(O)C1CCP(=O)(O)C1 (stereo not drawn)?
A: inhibition [8]: inactive; inhibition [9]: inactive

Q: How did the inhibition [8] turn out when O=P1(O)CCC(CO)C1 (stereo not drawn) was run?
A: Its inhibition is “inactive”.

Q: And the inhibition [9]?
A: Its inhibition is “inactive”.

Q: Which results are given for CCCCP(=O)(O)C1=CC[C@H](N)C1?
A: Kb [1]: 2.1 µM; inhibition [10]: 24.2%; inhibition [11]: 22.5%
